Usually melting point stands for the temperature of the solid-liquid transition. `O=C1c2ccc(F)cc2C(=O)N1CCCCN1CC=C(c2c[nH]c3ccc(F)cc23)CC1` registered a melting point of 197 to 199 °C.

These data come from patent US6391896B1, “3-Tetrahydropyridin-4-yl indoles for treatment of psychotic disorders” (Duphar International Research BV, priority 1998, dated 2002).
